Measurements: patent US20220380319A1 (Bial - R&D Investments, S.A., priority 2019, published 2022)
In brackets after ≈: the same amount, converted by molar mass.

How the values were obtained:
[1] = Compound solubility in water
[2] = target: T1, acid ceramidase (Homo sapiens, UniProt Q13510); test: Acid ceramidase inhibition, biochemical fluorescent assay with cell lysates overexpressing acid ceramidase, substrate Rbm14-12; settings: substrate Rbm14-12 6.3 μM, pH 4.5
T1 construct: Cell lysates overexpressing acid ceramidase were used as the enzyme source; expressed in transfected cells
T1 sequence (Q13510 22-395): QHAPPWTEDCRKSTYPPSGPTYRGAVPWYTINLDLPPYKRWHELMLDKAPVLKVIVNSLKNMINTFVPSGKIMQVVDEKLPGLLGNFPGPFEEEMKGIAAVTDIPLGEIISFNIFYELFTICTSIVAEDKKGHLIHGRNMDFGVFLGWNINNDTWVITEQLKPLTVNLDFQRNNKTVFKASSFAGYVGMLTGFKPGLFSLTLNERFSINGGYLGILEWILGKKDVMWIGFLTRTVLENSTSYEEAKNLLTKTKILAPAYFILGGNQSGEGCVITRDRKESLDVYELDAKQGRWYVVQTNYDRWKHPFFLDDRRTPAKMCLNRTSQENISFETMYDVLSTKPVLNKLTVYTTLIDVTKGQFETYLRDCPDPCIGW
Method in brief: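 Lysate of cells overexpressing acid ceramidase (10 μg protein) preincubated with compound dose series 1 hr at RT in 25 mM NaAC, 100 mM NaCl, pH 4.5, then reacted 1 hr with 6.3 μM Rbm14-12. Stopped with NaIO4/glycine buffer pH 10.6, fluorescence ex360/em446; IC50 by four-parameter fit.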

`CN1CC2CC1CN2c1cccc2c1ncn2C(=O)NCCOc1ccccc1` (centres unmarked) [Example 295, 4-(5-Methyl-2,5-diazabicyclo[2.2.1]heptan-2-yl)-N-(2-phenoxyethyl)-1H-benzo[d]imidazole-1-carboxamide] gave a solubility [1] of 0.033 mg/mL (≈ 84.3 µM) and an IC50 [2] of under 0.2 µM.

`CN1CC(N2CCN(c3cccc4c3ncn4C(=O)NCCOc3ccccc3)CC2)C1` [Example 296, 4-(4-(1-Methylazetidin-3-yl)piperazin-1-yl)-N-(2-phenoxyethyl)-1H-benzo[d]imidazole-1-carboxamide] gave a solubility [1] of 0.036 mg/mL (≈ 82.8 µM) and an IC50 [2] of under 0.2 µM.

Compound `CC(C)C#CCNC(=O)n1cnc2c(N3CC(N4CCN(C)CC4)C3)cccc21` [Example 298, N-(4-Methylpent-2-ynyl)-4-(3-(4-methyl-piperazin-1-yl)azetidin-1-yl)-1H-benzo[d]imidazole-1-carboxamide] has a solubility [1] of 0.027 mg/mL (≈ 68.4 µM) and an IC50 [2] of under 0.2 µM.

`CC(C)C#CCNC(=O)n1cnc2c(N3CCN(C4CN(C)C4)CC3)cccc21` [Example 299, 4-(4-(1-Methylazetidin-3-yl)piperazin-1-yl)-N-(4-methylpent-2-yn-1-yl)-1H-benzo[d]imidazole-1-carboxamide] showed a solubility [1] of 0.03 mg/mL (≈ 76 µM) and an IC50 [2] of under 0.2 µM.

For `CNC1CCN(c2cccc3c2ncn3C(=O)NCC#CC(C)C)C1` (centres unmarked) [Example 300, 4-(3-(Methylamino)pyrrolidin-1-yl)-N-(4-methylpent-2-ynyl)-1H-benzo[d]imidazole-1-carboxamide], the solubility [1] was 0.029 mg/mL (≈ 85.4 µM) and the IC50 [2] was under 0.2 µM.

`CC(C)C#CCNC(=O)n1cnc2c(N3CC4CC3CN4C)cccc21` (centres unmarked) [Example 301, 4-(5-Methyl-2,5-diazabicyclo[2.2.1]heptan-2-yl)-N-(4-methylpent-2-ynyl)-1H-benzo[d]imidazole-1-carboxamide] showed a solubility [1] of 0.034 mg/mL (≈ 96.7 µM) and an IC50 [2] of 0.2 to 1 µM.

`CC(C)C#CCNC(=O)n1cnc2c(N3CCN4CCCC4C3)cccc21` (centres unmarked) [Example 302, 4-(Hexahydropyrrolo[1,2-a]pyrazin-2(1H)-yl)-N-(4-methylpent-2-yn-1-yl)-1H-benzo[d]imidazole-1-carboxamide] showed a solubility [1] of 0.022 mg/mL (≈ 60.2 µM) and an IC50 [2] of under 0.2 µM.

Compound `CC(C)C#CCCNC(=O)n1cnc2c(N3CCN(C)CC3)cccc21` [Example 303, N-(5-Methylhex-3-yn-1-yl)-4-(4-methylpiperazin-1-yl)-1H-benzo[d]imidazole-1-carboxamide] has a solubility [1] of 0.028 mg/mL (≈ 79.2 µM) and an IC50 [2] of 0.2 to 1 µM.

In the case of `CC(C)C#CCNC(=O)n1cnc2c(N3CC4CCC3CN4C)cccc21` (centres unmarked) [Example 304, 4-(5-Methyl-2,5-diazabicyclo[2.2.2]octan-2-yl)-N-(4-methylpent-2-ynyl)-1H-benzo[d]imidazole-1-carboxamide], the solubility [1] is reported as 0.027 mg/mL (≈ 73.9 µM) and the IC50 [2] is reported as 0.2 to 1 µM.

Compound `CCC#CCNC(=O)n1cnc2c(N3CCN(C)CC3)cccc21` [Example 305, 4-(4-Methylpiperazin-1-yl)-N-(pent-2-yn-1-yl)-1H-benzo[d]imidazole-1-carboxamide] has a solubility [1] of 0.027 mg/mL (≈ 83 µM) and an IC50 [2] of 0.2 to 1 µM.

`CC(C)C#CCNC(=O)n1cnc2c(N3CCN(C)C(CC#N)C3)cccc21` (centres unmarked) [Example 306, 4-(3-(Cyanomethyl)-4-methylpiperazin-1-yl)-N-(4-methylpent-2-ynyl)-1H-benzo[d]imidazole-1-carboxamide] showed a solubility [1] of 0.023 mg/mL (≈ 60.8 µM) and an IC50 [2] of under 0.2 µM.

Compound `CC(C)C#CCNC(=O)n1cnc2c(N3CCN(C4COC4)CC3)cccc21` [Example 307, N-(4-Methylpent-2-yn-1-yl)-4-(4-(oxetan-3-yl)-piperazin-1-yl)-1H-benzo[d]imidazole-1-carboxamide] has a solubility [1] of 0.02 mg/mL (≈ 52.4 µM) and an IC50 [2] of under 0.2 µM.

`CC(C)C#CCNC(=O)n1cnc2c(N3CCN(CCF)CC3)cccc21` [Example 309, 4-(4-(2-Fluoroethyl)piperazin-1-yl)-N-(4-methylpent-2-yn-1-yl)-1H-benzo[d]imidazole-1-carboxamide] showed a solubility [1] of 0.022 mg/mL (≈ 59.2 µM) and an IC50 [2] of under 0.2 µM.

With `CC(C)C#CCNC(=O)n1cnc2c(N3CCN(CCC(F)(F)F)CC3)cccc21` [Example 310, N-(4-Methylpent-2-yn-1-yl)-4-(4-(3,3,3-trifluoropropyl)piperazin-1-yl)-1H-benzo[d]imidazole-1-carboxamide] the solubility [1] was 0.004 mg/mL (≈ 9.49 µM) and the IC50 [2] was under 0.2 µM.

With `CC(C)C#CCNC(=O)n1cnc2c(N3CCC4(CCCN4C)CC3)cccc21` [Example 311, 4-(1-Methyl-1,8-diazaspiro[4.5]decan-8-yl)-N-(4-methylpent-2-yn-1-yl)-1H-benzo[d]imidazole-1-carboxamide] the solubility [1] was 0.031 mg/mL (≈ 78.8 µM) and the IC50 [2] was under 0.2 µM.

For `CC(C)C#CCNC(=O)n1cnc2c(N3CCC4CN(C)CC4CC3)cccc21` (centres unmarked) [Example 312, 4-(2-Methyloctahydropyrrolo[3,4-d]azepin-6(1H)-yl)-N-(4-methylpent-2-yn-1-yl)-1H-benzo[d]imidazole-1-carboxamide], the solubility [1] was 0.024 mg/mL (≈ 61 µM) and the IC50 [2] was under 0.2 µM.

`CC(C)C#CCNC(=O)n1cnc2c(N3CCC4(CC3)CCN4C)cccc21` [Example 313, 4-(1-Methyl-1,7-diazaspiro[3.5]nonan-7-yl)-N-(4-methylpent-2-yn-1-yl)-1H-benzo[d]imidazole-1-carboxamide] gave a solubility [1] of 0.029 mg/mL (≈ 76.4 µM) and an IC50 [2] of under 0.2 µM.

Work on `CN1CCN(C2CN(c3cccc4c3ncn4C(=O)NCCOc3ccccc3)C2)CC1` [Example 314, 4-(3-(4-Methylpiperazin-1-yl)azetidin-1-yl)-N-(2-phenoxyethyl)-1H-benzo[d]imidazole-1-carboxamide] yielded a solubility [1] of 0.035 mg/mL (≈ 80.5 µM) and an IC50 [2] of under 0.2 µM.

With `CNC1CCN(c2cccc3c2ncn3C(=O)NCCOc2ccccc2)C1` (centres unmarked) [Example 315, 4-(3-(Methylamino)pyrrolidin-1-yl)-N-(2-phenoxyethyl)-1H-benzo[d]imidazole-1-carboxamide] the solubility [1] was 0.03 mg/mL (≈ 79.1 µM) and the IC50 [2] was under 0.2 µM.

`O=C(NCCOc1ccccc1)n1cnc2c(N3CCN4CCCC4C3)cccc21` (centres unmarked) [Example 316, 4-(Hexahydropyrrolo[1,2-a]pyrazin-2(1H)-yl)-N-(2-phenoxyethyl)-1H-benzo[d]imidazole-1-carboxamide] gave a solubility [1] of 0.027 mg/mL (≈ 66.6 µM) and an IC50 [2] of under 0.2 µM.

`CN1CCN(c2cccc3c2ncn3C(=O)NCCOc2ccccc2)CC1CC#N` (centres unmarked) [Example 317, 4-(3-(Cyanomethyl)-4-methylpiperazin-1-yl)-N-(2-phenoxyethyl)-1H-benzo[d]imidazole-1-carboxamide] showed a solubility [1] of 0.026 mg/mL (≈ 62.1 µM) and an IC50 [2] of under 0.2 µM.

With `CN1CCN(C2CN(c3cccc4c3ncn4C(=O)NCCC3CCC(F)(F)C3)C2)CC1` (centres unmarked) [Example 318, N-(2-(3,3-Difluorocyclopentyl)ethyl)-4-(3-(4-methylpiperazin-1-yl)azetidin-1-yl)-1H-benzo[d]imidazole-1-carboxamide] the solubility [1] was 0.04 mg/mL (≈ 89.6 µM) and the IC50 [2] was 0.2 to 1 µM.

`COc1nc2cc(N3CCN(C4CN(C)C4)CC3)c(F)cc2n1C(=O)NCCCc1ccccc1` [Example 319a, 6-Fluoro-2-methoxy-5-(4-(1-methylazetidin-3-yl)piperazin-1-yl)-N-(3-phenylpropyl)-1H-benzo[d]imidazole-1-carboxamide] gave a solubility [1] of 0.035 mg/mL (≈ 72.8 µM) and an IC50 [2] of 0.2 to 1 µM.

`COc1nc2cc(F)c(N3CCN(C4CN(C)C4)CC3)cc2n1C(=O)NCCCc1ccccc1` [Example 319b, 5-fluoro-2-methoxy-6-(4-(1-methylazetidin-3-yl)piperazin-1-yl)-N-(3-phenylpropyl)-1H-benzo[d]imidazole-1-carboxamide] showed a solubility [1] of 0.046 mg/mL (≈ 95.7 µM) and an IC50 [2] of 0.2 to 1 µM.

For `COc1nc2cc(N3CCN(C4CN(C)C4)CC3)c(F)cc2n1C(=O)NCC#CC(C)C` [Example 320a, 6-Fluoro-2-methoxy-5-(4-(1-methylazetidin-3-yl)piperazin-1-yl)-N-(4-methylpent-2-yn-1-yl)-1H-benzo[d]imidazole-1-carboxamide], the solubility [1] was 0.033 mg/mL (≈ 74.6 µM) and the IC50 [2] was over 1 µM.

`COc1nc2cc(F)c(N3CCN(C4CN(C)C4)CC3)cc2n1C(=O)NCC#CC(C)C` [Example 320b, 5-fluoro-2-methoxy-6-(4-(1-methylazetidin-3-yl)piperazin-1-yl)-N-(4-methylpent-2-yn-1-yl)-1H-benzo[d]imidazole-1-carboxamide] showed a solubility [1] of 0.042 mg/mL (≈ 94.9 µM) and an IC50 [2] of 0.2 to 1 µM.

For `COc1nc2cc(N3CCOCC3)c(F)cc2n1C(=O)NCC#CC(C)C` [Example 321a, 6-Fluoro-2-methoxy-N-(4-methylpent-2-yn-1-yl)-5-morpholino-1H-benzo[d]imidazole-1-carboxamide], the solubility [1] was 0.002 mg/mL (≈ 5.34 µM) and the IC50 [2] was 0.2 to 1 µM.

For `COc1nc2cc(F)c(N3CCOCC3)cc2n1C(=O)NCC#CC(C)C` [Example 321b, 5-fluoro-2-methoxy-N-(4-methylpent-2-yn-1-yl)-6-morpholino-1H-benzo[d]imidazole-1-carboxamide], the solubility [1] was 0.003 mg/mL (≈ 8.01 µM) and the IC50 [2] was 0.2 to 1 µM.

With `COc1nc2c(N3CCN(C)CC3)cccc2n1C(=O)NCC#Cc1ccccc1` [Example 322, 2-Methoxy-4-(4-methylpiperazin-1-yl)-N-(3-phenylprop-2-yn-1-yl)-1H-benzo[d]imidazole-1-carboxamide] the solubility [1] was 0.022 mg/mL (≈ 54.5 µM) and the IC50 [2] was 0.2 to 1 µM.

Work on `Cc1ccc(CNC(=O)n2cnc3c(N4CCN(C)CC4)cccc32)cc1` [Example 323, N-(4-Methylbenzyl)-4-(4-methylpiperazin-1-yl)-1H-benzo[d]imidazole-1-carboxamide] yielded a solubility [1] of 0.016 mg/mL (≈ 44 µM) and an IC50 [2] of under 0.2 µM.

`CN1CCN(c2cccc3c2ncn3C(=O)NCCc2ccccc2)CC1` [Example 324, 4-(4-Methylpiperazin-1-yl)-N-phenethyl-1H-benzo[d]imidazole-1-carboxamide] showed a solubility [1] of 0.011 mg/mL (≈ 30.3 µM) and an IC50 [2] of 0.2 to 1 µM.
